Data taken from patent US20260166065A1 (priority 2023, published 2026).

Target: PA-IL (lectin A, Lec A) (Pseudomonas aeruginosa, UniProt Q05097)
Assay: Lectin histochemistry: D-galactose blocking of biotinylated PA-IL binding to human respiratory epithelia, in relation to storage time of the sugar solution
Details: for PA-IL lectin binding at the cilia of human respiratory epithelia in presence of D-galactose: 5 μg/ml PA-IL
Procedure: Tissue preparation and lectin histological staining has been described (Schreiber et al. (2014) Anticancer Res. 34 (12): 7045-53). Five μm thick sections of human airway epithelium were applied to Adhesion Micro Slides (Histo Bond®; Marienfeld GmbH, Lauda-Königshofen Germany). Slides were deparaffinized and rehydrated through a series of graded ethanol to distilled water. […] Deparaffinized sections were briefly incubated in lectin buffer (LB) consisting of tris-buffered saline (TBS contained Trizma Base, 50 mM Tris; Sigma, Steinheim, Germany), sodium chloride (150 mM; J. T. Baker, Deventer, the Netherlands) and hydrochloric acid (Merck, Darmstadt, Germany) in distilled water (adjusted to pH 7.6) with addition of 1% MgCl2 and 1% CaCl2) (Merck, Darmstadt Germany). Sections were then treated with 0.1% trypsin (Biochrom KG, Berlin, Germany) dissolved in LB and incubated for 10 min at 37° C. To stop the digestion of the sections with trypsin, the sections were washed in running tap water for 5 min. […] This step was followed by three washes (5 min each) in TBS. Afterwards the sections were incubated with alkaline phosphatase streptavidin complex (Vectastain® ABC-Kit; Vector Laboratories) in a humid chamber for 30 min. After final three rinsings (5 min each) in TBS, sections were transferred into the visualizing mixture containing naphthol-AS-biphosphate, hexatozised new fuchsin, dimethylformamide and tween 20 (all from Sigma-Aldrich Chemie, Darmstadt, Germany) applied in the dark for 20 min to visualize enzyme reactivity. To stop the enzyme reaction, the sections were washed in running tap water (7 min) and were then transferred into distilled water (2 min). Counterstaining was performed using Mayer's hemalum (Merck). The sections were dehydrated and subsequently covered using a resinous permanent mounting medium (Eukitt, Kindler GmbH, Freiburg, Germany). Slides were first evaluated using a ZEISS Axiophot 2 microscope (Carl Zeiss, Jena, Germany). Digital images were obtained with a ZEISS Axio Scan Z1 slide scanner equipped with a ZEISS EC Plan-Neofluar 20×/0.50 Pol M27 objective (Carl Zeiss, Jena, Germany) and a Hitachi HV-F20SCL camera with 1600×1200 pixels (Hitachi Kokusai Electric America Ltd., New York, USA). For image acquisition ZEISS ZEN 2.3 software was used (Carl Zeiss, Jena, Germany). Images were further processed with netScope Viewer software (Net-Base Software, Freiburg, Germany).
For the PA-IL blocking experiments, 10 μg/ml PA-IL solution dissolved in LB was incubated 1:1 with a freshly prepared D-galactose solution (Merck, Darmstadt) for 30 min resulting in a final 5 μg/ml PA-IL solution before applying the mixture to the sections. The final concentration of D-galactose in solution ranged from 0.3 mM to 0.0375 mM D-galactose.
To analyze the loss of D-galactose activity to block PA-IL tissue binding in relation to storage time in an aqueous solution, D-galactose was dissolved in water and then stored for different durations (for 0, 40, 80, 160, 320 minutes as well as 12 and 24 h). After storage D-galactose was mixed with the PA-IL solution and used to incubate human respiratory epithelial tissue samples as described previously.

Sequence of PA-IL (lectin A, Lec A) (Q05097 whole entry): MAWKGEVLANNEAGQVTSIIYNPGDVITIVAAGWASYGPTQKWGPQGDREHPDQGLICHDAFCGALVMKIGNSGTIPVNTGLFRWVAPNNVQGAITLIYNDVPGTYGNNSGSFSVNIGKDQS

## O=C[C@H](O)[C@@H](O)[C@@H](O)[C@H](O)CO [D-galactose]
0.0375 mM D-galactose stored 80 minutes in water, FIG. 8
  PA-IL lectin binding at the cilia of human respiratory epithelia in presence of D-galactose: significantly reduced, but not completely abolished
After 80 minutes storage time in aqueous solution
  PA-IL blocking activity of aqueous D-galactose solution: nearly abolished
Freshly dissolved 0.0375 mM D-galactose, time point 0, FIG. 7
  PA-IL lectin binding at the cilia of human respiratory epithelia in presence of D-galactose: abolished
Freshly prepared solution
  PA-IL blocking efficacy of aqueous D-galactose solution: significant blocking activity
Storage in aqueous solution
  period of storage in aqueous solution over which PA-IL blocking efficacy is lost: approximately 80 minutes
